From PubChem BioAssay (NCI)
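Results reflect a 48-hour exposure of cells in 96-well plates to compound at five concentrations. GI50: concentration for 50% inhibition of growth. TGI marks complete inhibition of growth.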

How the values were obtained:
Experiment in all cases: NCI-60 cell line screen, 48 h
[1] = test system: HOP-62 NSCLC
[2] = test system: HT29 colon
[3] = test system: U251 CNS
[4] = test system: SF-539 CNS
[5] = test system: NCI/ADR-RES ovarian
[6] = test system: SK-MEL-5 melanoma
[7] = test system: BT-549 breast
[8] = test system: SK-OV-3 ovarian
[9] = test system: PC-3 prostate
[10] = test system: 786-0 renal
[11] = test system: ACHN renal
[12] = test system: HS 578T breast
[13] = test system: SK-MEL-28 melanoma
[14] = test system: SF-295 CNS
[15] = test system: UO-31 renal
[16] = test system: KM12 colon
[17] = test system: HCC-2998 colon
[18] = test system: RXF 393 renal
[19] = test system: OVCAR-8 ovarian
[20] = test system: UACC-62 melanoma
[21] = test system: HOP-92 NSCLC
[22] = test system: CCRF-CEM leukemia
[23] = test system: HL-60(TB) leukemia
[24] = test system: IGROV1 ovarian
[25] = test system: EKVX NSCLC
[26] = test system: LOX IMVI melanoma
[27] = test system: MALME-3M melanoma
[28] = test system: SW-620 colon
[29] = test system: SN12C renal
[30] = test system: SK-MEL-2 melanoma
[31] = test system: K-562 leukemia
[32] = test system: COLO 205 colon
[33] = test system: HCT-15 colon
[34] = test system: NCI-H226 lung
[35] = test system: NCI-H23 lung
[36] = test system: NCI-H522 lung
[37] = test system: MDA-MB-435
[38] = test system: SNB-75 CNS
[39] = test system: MDA-MB-231 breast
[40] = test system: A549 NSCLC
[41] = test system: M14 melanoma
[42] = test system: OVCAR-5 ovarian
[43] = test system: MOLT-4 leukemia
[44] = test system: UACC-257 melanoma
[45] = test system: HCT-116 colon
[46] = test system: MCF7 breast
[47] = test system: NCI-H460 lung
[48] = test system: DU-145 prostate
[49] = test system: SNB-19 CNS
[50] = test system: CAKI-1 renal
[51] = test system: OVCAR-4 ovarian
[52] = test system: SF-268 CNS
[53] = test system: OVCAR-3 ovarian
[54] = test system: SR leukemia
[55] = test system: TK-10 renal
[56] = test system: RPMI-8226 leukemia
[57] = test system: A498 renal

How did the GI50 [1] turn out when `COc1cc2nc(N3CCCC3)nc(Nc3ccccc3)c2cc1OC` was run?
The GI50 was 1930 nM.

What about the TGI [1] of the same compound?
The TGI was 4200 nM.

What about the GI50 [2] of the same compound?
The GI50 was 1340 nM.

And the TGI [2]?
The TGI was 3110 nM.

What about the GI50 [3] of the same compound?
The GI50 was 1020 nM.

What about the TGI [3] of the same compound?
Its TGI is 2450 nM.

And the GI50 [4]?
The GI50 was 560 nM.

And the TGI [4]?
Its TGI is 1840 nM.

And the GI50 [5]?
Its GI50 is 1740 nM.

What about the TGI [5] of the same compound?
Its TGI is 4070 nM.

What about the GI50 [6] of the same compound?
Its GI50 is 1710 nM.

And the TGI [6]?
Its TGI is 3120 nM.

And the GI50 [7]?
The GI50 was 1690 nM.

And the TGI [7]?
The TGI was 3250 nM.

What about the GI50 [8] of the same compound?
The GI50 was 1990 nM.

What about the TGI [8] of the same compound?
Its TGI is 3720 nM.

What about the GI50 [9] of the same compound?
Its GI50 is 1710 nM.

What about the TGI [9] of the same compound?
The TGI was 3450 nM.

What about the GI50 [10] of the same compound?
Its GI50 is 1710 nM.

What about the TGI [10] of the same compound?
The TGI was 3530 nM.

And the GI50 [11]?
The GI50 was 1380 nM.

What about the TGI [11] of the same compound?
The TGI was 2670 nM.

And the GI50 [12]?
Its GI50 is 1970 nM.

And the TGI [12]?
Its TGI is 4450 nM.

And the GI50 [13]?
The GI50 was 1760 nM.

And the TGI [13]?
Its TGI is 3180 nM.

What about the GI50 [14] of the same compound?
The GI50 was 1800 nM.

What about the TGI [14] of the same compound?
The TGI was 3270 nM.

And the GI50 [15]?
Its GI50 is 1390 nM.

What about the TGI [15] of the same compound?
The TGI was 2840 nM.

And the GI50 [16]?
Its GI50 is 1740 nM.

And the TGI [16]?
Its TGI is 3320 nM.

And the GI50 [17]?
Its GI50 is 1900 nM.

What about the TGI [17] of the same compound?
The TGI was 3650 nM.

What about the GI50 [18] of the same compound?
Its GI50 is 1400 nM.

What about the TGI [18] of the same compound?
The TGI was 2780 nM.

What about the GI50 [19] of the same compound?
The GI50 was 1540 nM.

What about the TGI [19] of the same compound?
The TGI was 5060 nM.

And the GI50 [20]?
Its GI50 is 1730 nM.

And the TGI [20]?
The TGI was 3230 nM.

And the GI50 [21]?
Its GI50 is 1390 nM.

What about the TGI [21] of the same compound?
The TGI was 2990 nM.

And the GI50 [22]?
Its GI50 is 329 nM.

And the TGI [22]?
Its TGI is 3090 nM.

And the GI50 [23]?
The GI50 was 635 nM.

And the TGI [23]?
Its TGI is 2420 nM.

What about the GI50 [24] of the same compound?
Its GI50 is 1380 nM.

And the TGI [24]?
The TGI was 2840 nM.

And the GI50 [25]?
Its GI50 is 1880 nM.

What about the TGI [25] of the same compound?
The TGI was 3530 nM.

What about the GI50 [26] of the same compound?
The GI50 was 201 nM.

And the TGI [26]?
Its TGI is 479 nM.

And the GI50 [27]?
The GI50 was 1880 nM.

And the TGI [27]?
The TGI was 3370 nM.

And the GI50 [28]?
Its GI50 is 1520 nM.

And the TGI [28]?
Its TGI is 3170 nM.

And the GI50 [29]?
The GI50 was 1720 nM.

And the TGI [29]?
The TGI was 3240 nM.

And the GI50 [30]?
Its GI50 is 2090 nM.

And the TGI [30]?
The TGI was 4160 nM.

And the GI50 [31]?
Its GI50 is 382 nM.

What about the TGI [31] of the same compound?
Its TGI is 2070 nM.

What about the GI50 [32] of the same compound?
The GI50 was 1300 nM.

What about the TGI [32] of the same compound?
Its TGI is 3960 nM.

What about the GI50 [33] of the same compound?
Its GI50 is 680 nM.

What about the TGI [33] of the same compound?
Its TGI is 2040 nM.

What about the GI50 [34] of the same compound?
Its GI50 is 1970 nM.

What about the TGI [34] of the same compound?
Its TGI is 4120 nM.

And the GI50 [35]?
The GI50 was 1930 nM.

What about the TGI [35] of the same compound?
Its TGI is 3760 nM.

And the GI50 [36]?
Its GI50 is 1890 nM.

What about the TGI [36] of the same compound?
Its TGI is 3960 nM.

What about the GI50 [37] of the same compound?
Its GI50 is 1660 nM.

What about the TGI [37] of the same compound?
The TGI was 3090 nM.

What about the GI50 [38] of the same compound?
Its GI50 is 1390 nM.

And the TGI [38]?
The TGI was 2700 nM.

And the GI50 [39]?
Its GI50 is 1560 nM.

And the TGI [39]?
The TGI was 3110 nM.

And the GI50 [40]?
Its GI50 is 1650 nM.

And the TGI [40]?
Its TGI is 4310 nM.

What about the GI50 [41] of the same compound?
Its GI50 is 1830 nM.

What about the TGI [41] of the same compound?
Its TGI is 3560 nM.

And the GI50 [42]?
The GI50 was 1750 nM.

And the TGI [42]?
The TGI was 3140 nM.

What about the GI50 [43] of the same compound?
The GI50 was 1540 nM.

And the TGI [43]?
The TGI was 4330 nM.

What about the GI50 [44] of the same compound?
The GI50 was 1860 nM.

What about the TGI [44] of the same compound?
Its TGI is 3790 nM.

And the GI50 [45]?
Its GI50 is 580 nM.

And the TGI [45]?
Its TGI is 2440 nM.

What about the GI50 [46] of the same compound?
The GI50 was 637 nM.

What about the TGI [46] of the same compound?
Its TGI is 2290 nM.

And the GI50 [47]?
The GI50 was 1860 nM.

What about the TGI [47] of the same compound?
The TGI was 3590 nM.

What about the GI50 [48] of the same compound?
The GI50 was 1620 nM.

And the TGI [48]?
Its TGI is 3070 nM.

And the GI50 [49]?
The GI50 was 1650 nM.

What about the TGI [49] of the same compound?
Its TGI is 3140 nM.

What about the GI50 [50] of the same compound?
The GI50 was 1450 nM.

What about the TGI [50] of the same compound?
Its TGI is 2800 nM.

And the GI50 [51]?
The GI50 was 1430 nM.

And the TGI [51]?
Its TGI is 2800 nM.

And the GI50 [52]?
The GI50 was 1850 nM.

And the TGI [52]?
Its TGI is 3930 nM.

And the GI50 [53]?
Its GI50 is 1800 nM.

What about the TGI [53] of the same compound?
The TGI was 3300 nM.

And the GI50 [54]?
The GI50 was 234 nM.

What about the TGI [54] of the same compound?
Its TGI is 1260 nM.

What about the GI50 [55] of the same compound?
Its GI50 is 1880 nM.

What about the TGI [55] of the same compound?
The TGI was 3370 nM.

What about the GI50 [56] of the same compound?
Its GI50 is 1070 nM.

And the TGI [56]?
Its TGI is 4300 nM.

And the GI50 [57]?
Its GI50 is 1020 nM.

And the TGI [57]?
The TGI was 2280 nM.
